Values of other authors as cited in patent publication US20250041322A1, “HEAT STRESS RELIEVING AGENT” (Hayashibara Co., Ltd., priority 2018, published 2025).

## COc1ccc(C2CC(=O)c3c(O)cc(O[C@@H]4OC(CO)[C@@H](O)C(O)C4O)cc3O2)cc1O (stereo partly drawn) [7-O-β-glucosyl hesperetin]
  Water solubility, comparison in words: more water-soluble than hesperidin
